# According to patent US20240009231A1, “Method for Pleurodesis and Delivery of Drugs to the Lung and Pleural Space” (University of Cincinnati, priority 2020, published 2024):
# Assays:
# C57BL/6J mice = conditions: mouse, in vivo
# Procedure: Either hydroxyapatite microspheres (HAMs, Fluidinova) or talc was injected via the intrapleural (i.pl.) route into C57BL/6J mice. For the mice injected with HAMs, 4 mg/g mouse of HAM/300 μL saline/mice was used. For the mice injected with talc, 2 mg/g mouse of talc/300 μL saline/mice was used. The mice were euthanized at day 0, day 7, day 14 or day 28 and post-mortem assessments were performed. Effectiveness of pleurodesis was assessed by introducing air into the pleural space. Each lung was punctured percutaneously with a 20 G needle for 12 times for left and right lung (total 24 times) (transthoracic needle puncture). Then, a CT scan was taken to measure the volume of pneumothorax air space in the thoracic cavity (see FIGS. 1A and 1B).
# In addition, paraffin-embedded lung sections were stained with H&E and Mason's trichrome reagent for microscopic evaluation of pleural fibrosis and pleural thickness. Clearance of particles was assessed by microCT (see FIGS. 2A and 2B). Macroscopic pleural adhesions were scored (see FIGS. 3A, 3B and 3C); pleural lavage cells were collected to assess OLMNGC (osteoclast-like multinucleated giant cells) formation, including cytology, fibrosis- and osteoclast-related gene and protein expression of tartrate-resistant acid phosphatase (TRAP), (CTSK), and calcitonin receptor (Calcr) antibody by rtPCR and immunohistochemistry
# lungs of mice = conditions: mouse, in vivo
substance,measurement,setting,value
hydroxyapatite [HAMs],amount of residual particles in the thoracic cavity,C57BL/6J mice,decreased over time
same,clearance of particles,C57BL/6J mice,almost completely cleared
same,lung inflammation,lungs of mice,transient monocyte rich inflammation
same,pulmonary fibrosis,lungs of mice,no residual fibrosis
same,clearance of particles from the lungs,lungs of mice; inhaled or intranasal,cleared within a month
